The results in this text go back to patent US10870639B2, “Pyrimidine compounds and pharmaceutical compositions for preventing or treating cancers including the same” (HANMI PHARM. CO., LTD., priority 2018, dated 2020).

Structures are written as SMILES. pIC50: −log10 of the molar value.

Series [1] is described as follows: Pharmacokinetic profile in mice (p.o. and i.v.). The series is classed as in vivo. Also noted: AUC: concentration or dose not given beside the values. The following applies: mouse, plasma; for AUC: LC-MS/MS, non-compartment analysis, read-out: Area under the curve (AUC) of mice; for bioavailability: po, BA=(AUC p.o./AUC i.v.)×(Dose i.v./Dose p.o.)×100. The protocol: After test substances were formulated by using the selected solvents, they were administered orally (p.o.) and intravenously (iv) once for each and a certain amount of blood was taken at a predetermined time, and plasma was isolated from the blood and a concentration analysis was performed thereon by LC-MS/MS. The AUC (drug concentration and an area under the curve) was calculated according to the linear-log trapezoidal summation formula by using the non-compartment analysis of the WinNonlin program through the plasma concentration curves over time. The bioavailability (BA) was calculated by applying the calculated AUC value to the following formula. BA (%)=(AUC p.o./AUC i.v.)×(Dose i.v./Dose p.o.)×100

Series [2] has as its system MOLM-13. Kind of series: Cell growth inhibition (MTS), MOLM-13. To be noted: Homo sapiens, MOLM-13, 72 h, incubation three days. In kind it is cell-based. On the procedure:
(§1) The human acute myelogenous leukemia […] cell line MOLM-13 (DSMZ no. ACC 554) was incubated in RPM11640 medium supplemented with 20% heat-inactivated FBS at a temperature of 37° C. The incubated cell line was prepared in an amount of 2.0×10^4 cells/100 μL, and then plated on a 96-well plate. The RPMI1640 medium was serially diluted with the test compounds at a concentration in a range of 1 μM to 0.01 nM at a ratio of 1:10. Subsequently, incubation was performed thereon for three days. For the human acute myelogenous leukemia cell line MV-4-11 cell line (ATCC® CRL-9591™), the cells were incubated at a temperature of 37° C. in IMDM medium supplemented with 10% FBS. The incubated cell line was prepared in an amount of 2×10^4 cells/100 μL, and then plated on a 96-well plate. The IMDM medium was treated with cascade dilution of three test compounds at a concentration in a range of 1 μM to 0.01 nM at a rate of 1/10. Subsequently, incubation was performed thereon for three days. MTS test was performed to measure cell viability, and the growth inhibition (GI50) value of the cell line was calculated using GraphPad Prism software.

Series [3] concerns MV-4-11. Kind of series: Cell growth inhibition (MTS), MV-4-11. The series is classed as cell-based. To be noted: Homo sapiens, MV4-11, 72 h, incubation three days. The protocol: as §1
Series [4] has as its target FLT3 ITD (Homo sapiens, UniProt P36888, ITD). Put plainly: LanthaScreen kinase binding assay, FLT3 ITD. (In general: Time-resolved FRET reads energy transfer from a long-lived donor to a nearby acceptor.)
Protocol: The inhibitory activity of some of the compounds described above against FLT3-ITD, FLT3 wild type (WT), VEGFR2 (KDR), and SYK kinase was measured.
This experiment was carried out on a 384-well plate in conditions including 50 mM HEPES pH 7.5, 0.01% BRIJ-35, 10 mM MgCl2, 1 mM EGTA, and 1% DMSO.

FLT3 ITD, sequence (P36888 whole entry, looked up, change not shown): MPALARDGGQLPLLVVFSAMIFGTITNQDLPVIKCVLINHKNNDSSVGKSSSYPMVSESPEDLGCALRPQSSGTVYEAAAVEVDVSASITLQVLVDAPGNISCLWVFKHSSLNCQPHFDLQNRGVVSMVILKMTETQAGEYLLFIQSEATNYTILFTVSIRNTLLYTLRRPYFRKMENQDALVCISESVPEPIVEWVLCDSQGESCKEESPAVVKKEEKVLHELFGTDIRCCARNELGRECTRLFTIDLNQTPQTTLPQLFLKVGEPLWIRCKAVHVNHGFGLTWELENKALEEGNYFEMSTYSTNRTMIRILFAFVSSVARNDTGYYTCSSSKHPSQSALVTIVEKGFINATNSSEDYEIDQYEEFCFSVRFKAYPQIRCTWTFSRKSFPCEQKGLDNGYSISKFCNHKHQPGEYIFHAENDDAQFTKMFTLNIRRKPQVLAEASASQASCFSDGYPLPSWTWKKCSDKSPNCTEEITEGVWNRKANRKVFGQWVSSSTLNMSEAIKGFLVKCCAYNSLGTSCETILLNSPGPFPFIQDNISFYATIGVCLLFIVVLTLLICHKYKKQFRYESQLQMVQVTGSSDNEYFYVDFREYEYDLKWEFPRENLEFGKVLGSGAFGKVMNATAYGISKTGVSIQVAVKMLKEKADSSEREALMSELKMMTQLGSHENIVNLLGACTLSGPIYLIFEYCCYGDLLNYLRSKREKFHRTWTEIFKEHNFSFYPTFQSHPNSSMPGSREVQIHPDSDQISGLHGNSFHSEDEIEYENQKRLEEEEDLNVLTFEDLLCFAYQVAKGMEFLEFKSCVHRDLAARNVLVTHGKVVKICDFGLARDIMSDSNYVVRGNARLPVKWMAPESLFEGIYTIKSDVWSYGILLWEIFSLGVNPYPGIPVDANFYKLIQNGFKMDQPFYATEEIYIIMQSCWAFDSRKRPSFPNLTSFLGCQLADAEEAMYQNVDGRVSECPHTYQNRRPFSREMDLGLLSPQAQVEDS

A word on the AUC: it is concentration integrated over time. By bioavailability is commonly meant dose-corrected exposure relative to a reference, in per cent. For `COc1cc(CN2CCN(CCO)CC2)cc(Nc2ncc(Cl)c(-c3c[nH]c4ccccc34)n2)c1` [Control Compound 1], in series [1], the AUC is 0.0955 µg·h/mL and the bioavailability was 6.6%.

Take `OCCN1CCN(Cc2cccc(Nc3ncc(Cl)c(-c4c[nH]c5ccccc45)n3)c2)CC1` [Control Compound 2]: in series [1], the area under the curve (AUC) is 0.11 µg·h/mL and the bioavailability worked out at 6.7%.

In the case of `Cc1ccc2c(-c3nc(Nc4cc(C5CC5)cc(N5CCC(N(C)C)CC5)c4)ncc3Cl)c[nH]c2c1` [Control Compound 3], in series [1], the AUC was 2.27 µg·h/mL and the bioavailability worked out at 27.3%.

On to `CN(C)C1CCN(c2cc(Nc3ncc(Cl)c(-c4c[nH]c5ccccc45)n3)cc(C3CC3)c2)CC1` [Control Compound 4], for which, in series [1], the AUC is 0.518 µg·h/mL and the bioavailability turned out to be 27%.

Consider `Cc1ccc2c(-c3nc(Nc4cc(CN5CCN(C(C)(C)CO)CC5)cc(C5CC5)c4)ncc3Cl)c[nH]c2c1` [Control Compound 5], for which, in series [1], the AUC was determined as 1.22 µg·h/mL and the bioavailability worked out at 25.6%.

In general, GI50 refers to the concentration that inhibits growth by half. One may read the pIC50 as the IC50 on a negative log10 scale, so that one unit is a factor of ten. On to `C[C@@H]1CN(Cc2cc(Nc3ncc(Cl)c(-c4c[nH]c5cc(F)ccc45)n3)cc(C3CC3)c2)C[C@H](C)N1CCO` [Example 3, 2-((2R,6S)-4-(3-((5-chloro-4-(6-fluoro-1H-indole-3-yl)pyrimidine-2-yl)amino)-5-cyclopropylbenzyl)-2,6-dimethylpiperazine-1-yl)ethane-1-ol], for which the GI50 worked out at 0.4 nM in series [2] and 0.3 nM in series [3]. The same molecule had a pIC50 in series [4] of 8.09.

`C[C@@H]1CN(Cc2cc(Nc3ncc(Cl)c(-c4c[nH]c5ccccc45)n3)cc(C3CC3)c2)CCN1` [Example 6, (R)-5-chloro-N-(3-cyclopropyl-5-((3-methylpiperazine-1-yl)methyl)phenyl)-4-(1H-indole-3-yl)pyrimidine-2-amine] showed a pIC50 in series [4] of 8.74.

`Cc1ccc2c(-c3nc(Nc4cc(CN5CC(C)NC(C)C5)cc(C5CC5)c4)ncc3Cl)c[nH]c2c1` (stereo not drawn) [Example 10, 5-chloro-N-(3-cyclopropyl-5-((3,5-dimethylpiperazine-1-yl)methyl)phenyl)-4-(6-methyl-1H-indole-3-yl)pyrimidine-2-amine]: the GI50 in series [2] was found to be 5 nM; in series [3], 2.8 nM.

In the case of `Cc1cnc(Nc2cc(CN3C[C@@H](C)N[C@@H](C)C3)cc(C3CC3)c2)nc1-c1c[nH]c2ccccc12` [Example 13, N-(3-cyclopropyl-5-(((3R,5S)-3,5-dimethylpiperazine-1-yl)methyl)phenyl)-4-(1H-indole-3-yl)-5-methylpyrimidine-2-amine], the GI50 in series [2] came to 2.6 nM; in series [3], 2.1 nM. The molecule also gave a pIC50 in series [4] of 8.06.

With `Cc1ccc2c(c1)NC(=O)C2c1nc(Nc2cc(CN3C[C@@H](C)N[C@@H](C)C3)cc(C3CC3)c2)ncc1Cl` (stereo partly drawn) [Example 19, 3-(5-chloro-2-((3-cyclopropyl-5-(((3R,5S)-3,5-dimethylpiperazine-1-yl)methyl)phenyl)amino)pyrimidine-4-yl)-6-methylindoline-2-one], the pIC50 in series [4] was less than 7.30.

On to `Cc1ccc2c(-c3nc(Nc4cc(CN5C[C@@H](C)N[C@@H](C)C5)cc(C5CC5)c4)ncc3Cl)c[nH]c2c1O` [Example 22, 3-(5-chloro-2-((3-cyclopropyl-5-(((3R,5S)-3,5-dimethylpiperazine-1-yl)methyl)phenyl)amino)pyrimidine-4-yl)-6-methyl-1H-indole-7-ol], for which the negative logarithm of the IC50 (pIC50) in series [4] was 8.62.

On to `Cc1ccc2c(-c3nc(Nc4cc(CN5C[C@@H](C)N[C@H](C)C5)cc(C5CC5)c4)ncc3Cl)c[nH]c2c1` [Example 28, 5-chloro-N-(3-cyclopropyl-5-(((3R,5R)-3,5-dimethylpiperazine-1-yl)methyl)phenyl)-4-(6-methyl-1H-indole-3-yl)pyrimidine-2-amine], for which the GI50 in series [2] was 0.8 nM; in series [3] it was less than 0.01 nM.

The molecule `Cc1ccc2c(-c3nc(Nc4cc(CN5C[C@@H](C)N(O)[C@@H](C)C5)cc(C5CC5)c4)ncc3Cl)c[nH]c2c1` [Example 31, (2R,6S)-4-(3-((5-chloro-4-(6-methyl-1H-indole-3-yl)pyrimidine-2-yl)amino)-5-cyclopropylbenzyl)-2,6-dimethylpiperazine-1-ol] had a pIC50 in series [4] of 8.16.
